Target: glucocorticoid receptor (Homo sapiens (Human), UniProt P04150)
Assay: HepG2 TAT assay: inhibition of dexamethasone-induced tyrosine aminotransferase (TAT) activity
Type: cell-based
Conditions: HepG2 cells, challenge of 100 nM dexamethasone, 18-24 hr; IC50 converted to Ki by Cheng and Prusoff equation
Outline: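 Cells lysed 15 min at 4 °C; TAT enzyme reaction 2 h at 37 °C, stopped with KOH, 30 min further at 37 °C. Inhibition fitted to 4-parameter logistic.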

Sequence of glucocorticoid receptor (P04150 whole entry): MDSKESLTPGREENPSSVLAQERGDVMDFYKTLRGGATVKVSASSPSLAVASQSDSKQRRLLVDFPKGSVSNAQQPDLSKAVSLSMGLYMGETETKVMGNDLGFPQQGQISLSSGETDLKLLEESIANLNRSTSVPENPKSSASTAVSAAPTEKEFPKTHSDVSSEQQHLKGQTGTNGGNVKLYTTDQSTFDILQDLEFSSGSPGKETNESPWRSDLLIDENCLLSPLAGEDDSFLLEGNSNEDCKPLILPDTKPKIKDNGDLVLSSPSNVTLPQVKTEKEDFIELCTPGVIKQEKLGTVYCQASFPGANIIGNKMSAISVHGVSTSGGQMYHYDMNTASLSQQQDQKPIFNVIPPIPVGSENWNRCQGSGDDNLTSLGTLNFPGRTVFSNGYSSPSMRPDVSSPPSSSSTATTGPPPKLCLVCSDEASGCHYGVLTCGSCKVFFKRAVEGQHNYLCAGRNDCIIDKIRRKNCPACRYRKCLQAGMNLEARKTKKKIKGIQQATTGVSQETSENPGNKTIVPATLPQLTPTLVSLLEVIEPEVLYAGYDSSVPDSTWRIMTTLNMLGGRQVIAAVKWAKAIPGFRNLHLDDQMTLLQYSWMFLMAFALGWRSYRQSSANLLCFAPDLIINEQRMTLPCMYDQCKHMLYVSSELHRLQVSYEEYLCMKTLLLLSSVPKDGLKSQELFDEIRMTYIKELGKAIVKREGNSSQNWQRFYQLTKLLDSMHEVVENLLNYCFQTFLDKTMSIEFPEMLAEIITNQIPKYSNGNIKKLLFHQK

Row | Compound | Ki
1 | CCCn1ncc(S(=O)(=O)N2CC3CC(OC)(c4ccccc4)CC3(c3cc4cnn(-c5ccc(F)cc5)c4cc3C)C2)n1 (centres unmarked) [Example 27] | 78 nM
2 | COC1(c2ccccc2)CC2CN(S(=O)(=O)C3(C)CC3)CC2(c2cc3cnn(-c4ccc(F)cc4)c3cc2C)C1 (centres unmarked) [Example 28] | 32 nM
3 | COC1(c2ccccc2)CC2CN(S(=O)(=O)C(C)C)CC2(c2cc3cnn(-c4ccc(F)cc4)c3cc2C)C1 (centres unmarked) [Example 30] | 32 nM
4 | COC1(c2ccccc2)CC2CN(S(=O)(=O)c3ccn(C)n3)CC2(c2cc3cnn(-c4ccc(F)cc4)c3cc2C)C1 (centres unmarked) [Example 31] | 130 nM
5 | CO[C@]1(c2ccccc2)C[C@@H]2CN(C(C)=O)C[C@]2(c2cc3cnn(-c4ccc(F)cc4)c3cc2C)C1 [Example 33] | 220 nM
6 | COC1CC2CN(S(C)(=O)=O)CC2(c2cc3cnn(-c4ccc(F)cc4)c3cc2C)C1 (centres unmarked) [Example 34, 1-(4-fluorophenyl)-5-(5-methoxy-2-(methylsulfonyl)hexahydrocyclopenta[c]pyrrol-3a(1H)-yl)-6-methyl-1H-indazole] | 800 nM
7 | Cc1cc2c(cnn2-c2ccc(F)cc2)cc1C12CC(OCc3ccccc3)CC1CN(C(=O)OC(C)(C)C)C2 (centres unmarked) [Example 35, tert-butyl 5-(benzyloxy)-3a-(1-(4-fluorophenyl)-6-methyl-1H-indazol-5-yl)hexahydrocyclopenta[c]pyrrole-2(1H)-carboxylate] | 160 nM
8 | Cc1cc2c(cnn2-c2ccc(F)cc2)cc1C12CC(Oc3ccccc3)CC1CN(S(C)(=O)=O)C2 (centres unmarked) [Example 36, 1-(4-fluorophenyl)-6-methyl-5-(2-(methylsulfonyl)-5-phenoxyhexahydrocyclopenta[c]pyrrol-3a(1H)-yl)-1H-indazole] | 72 nM
9 | Cc1cc2c(cnn2-c2ccc(F)cc2)cc1C12CC(Oc3ccccc3)CC1CN(S(C)(=O)=O)C2 (centres unmarked) [Example 37, 1-(4-fluorophenyl)-6-methyl-5-(2-(methylsulfonyl)-5-phenoxyhexahydrocyclopenta[c]pyrrol-3a(1H)-yl)-1H-indazole] | 170 nM
10 | Cc1cc2c(cnn2-c2ccc(F)cc2)cc1C12CC(Oc3ccccc3)CC1CN(S(C)(=O)=O)C2 (centres unmarked) [Example 38] | 97 nM
11 | Cc1cc2c(cnn2-c2ccc(F)cc2)cc1C12CC(Oc3ccccc3)CC1CN(C(=O)c1ccccc1)C2 (centres unmarked) [Example 39] | 190 nM
12 | CC(=O)N1CC2CC(Oc3ccccc3)CC2(c2cc3cnn(-c4ccc(F)cc4)c3cc2C)C1 (centres unmarked) [Example 40] | 420 nM
13 | Cc1cc2c(cnn2-c2ccc(F)cc2)cc1C12CC(Oc3ccccn3)CC1CN(S(C)(=O)=O)C2 (centres unmarked) [Example 41] | 110 nM
14 | Cc1cc2c(cnn2-c2ccc(F)cc2)cc1C12CC(Oc3cccnc3)CC1CN(S(C)(=O)=O)C2 (centres unmarked) [Example 42] | 260 nM
15 | CCCn1cc(S(=O)(=O)N2CC3CC(Oc4ccccc4)CC3(c3cc4cnn(-c5ccc(F)cc5)c4cc3C)C2)cn1 (centres unmarked) [Example 43] | 41 nM
16 | Cc1cc2c(cnn2-c2ccc(F)cc2)cc1C12CC(Oc3ccccc3)CC1CN(S(=O)(=O)c1cnn(C)c1)C2 (centres unmarked) [Example 44] | 370 nM
17 | Cc1cc2c(cnn2-c2ccc(F)cc2)cc1C12CC(Oc3ccccc3)CC1CN(C(=O)OC(C)(C)C)C2 (centres unmarked) [Example 45] | 96 nM
18 | Cc1cc2c(cnn2-c2ccc(F)cc2)cc1C12CC(c3ccccc3)CC1CN(S(C)(=O)=O)C2 (centres unmarked) [Example 46, 1-(4-fluorophenyl)-6-methyl-5-(2-(methylsulfonyl)-5-phenylhexahydrocyclopenta[c]pyrrol-3a(1H)-yl)-1H-indazole] | 87 nM
19 | Cc1cc2c(cnn2-c2ccc(F)cc2)cc1C12CN(S(=O)(=O)c3cnn(C)n3)CC1C2CO (centres unmarked) [Example 47, (1-(1-(4-fluorophenyl)-6-methyl-1H-indazol-5-yl)-3-((2-methyl-2H-1,2,3-triazol-4-yl)sulfonyl)-3-azabicyclo[3.1.0]hexan-6-yl)methanol] | 270 nM

Row | Compound | Ki
20 | Cc1cc2c(cnn2-c2ccc(F)cc2)cc1C12CN(S(=O)(=O)c3cnn(C)n3)CC1C2COc1ccccn1 (centres unmarked) [Example 50, 1-(4-fluorophenyl)-6-methyl-5-(3-((2-methyl-2H-1,2,3-triazol-4-yl)sulfonyl)-6-((pyridin-2-yloxy)methyl)-3-azabicyclo[3.1.0]hexan-1-yl)-1H-indazole] | 680 nM
21 | Cc1cc2c(cnn2-c2ccc(F)cc2)cc1[C@]12CN(S(=O)(=O)c3cnn(C)n3)C[C@H]1[C@@H]2C(=O)NC1CCC1 [Example 60] | 200 nM
22 | Cc1cc2c(cnn2-c2ccc(F)cc2)cc1[C@@]12CN(S(=O)(=O)c3cnn(C)n3)C[C@@H]1[C@H]2C(=O)NC1CCCC1 [Example 61] | 200 nM
23 | Cc1cc2c(cnn2-c2ccc(F)cc2)cc1[C@]12CN(S(=O)(=O)c3cnn(C)n3)C[C@H]1[C@@H]2C(=O)Nc1ccccc1 [Example 62] | 38 nM
24 | Cc1cccc(NC(=O)[C@H]2[C@@H]3CN(S(=O)(=O)c4cnn(C)n4)C[C@@]32c2cc3cnn(-c4ccc(F)cc4)c3cc2C)c1 [Example 63] | 88 nM
25 | Cc1cc2c(cnn2-c2ccc(F)cc2)cc1[C@]12CN(S(=O)(=O)c3cnn(C)n3)C[C@H]1[C@@H]2C(=O)N(C)c1ccccc1 [Example 64] | 130 nM
26 | CCNC(=O)[C@@H]1[C@H]2CN(S(=O)(=O)c3cnn(C)n3)C[C@]21c1cc2cnn(-c3ccc(F)cc3)c2cc1C [Example 65] | 430 nM
27 | Cc1cc2c(cnn2-c2ccc(F)cc2)cc1[C@@]12CN(S(=O)(=O)c3cnn(C)n3)C[C@@H]1[C@H]2C(=O)NCC(C)C [Example 66] | 150 nM
28 | Cc1cc2c(cnn2-c2ccc(F)cc2)cc1[C@@]12CN(S(C)(=O)=O)C[C@@H]1[C@H]2C(=O)Nc1ccc(F)cn1 [Example 67] | 84 nM
29 | Cc1cc2c(cnn2-c2ccc(F)cc2)cc1[C@@]12CN(S(=O)(=O)c3cnn(C)n3)C[C@@H]1[C@H]2c1ccccc1 [Example 70] | 24 nM
30 | Cc1cc2c(cnn2-c2ccc(F)cc2)cc1[C@@]12CN(S(=O)(=O)c3cnn(C)n3)C[C@@H]1[C@H]2c1ccccc1 [Example 71] | 15 nM
31 | Cc1cc2c(cnn2-c2ccc(F)cc2)cc1[C@]12CN(S(=O)(=O)c3cnn(C)n3)C[C@H]1[C@@H]2c1ccccc1 [Example 72] | 160 nM
32 | Cc1cc2c(cnn2-c2ccc(F)cc2)cc1[C@]12CN(S(=O)(=O)c3cnn(C)c3)C[C@H]1[C@@H]2c1ccccc1 [Example 73] | 36 nM
33 | CCn1ncc(S(=O)(=O)N2C[C@H]3[C@H](c4ccccc4)[C@@]3(c3cc4cnn(-c5ccc(F)cc5)c4cc3C)C2)n1 [Example 74] | 15 nM
34 | CCCn1ncc(S(=O)(=O)N2C[C@H]3[C@H](c4ccccc4)[C@@]3(c3cc4cnn(-c5ccc(F)cc5)c4cc3C)C2)n1 [Example 75] | 25 nM
35 | Cc1cc2c(cnn2-c2ccc(F)cc2)cc1[C@@]12CN(S(C)(=O)=O)C[C@@H]1[C@H]2c1ccccc1 [Example 77] | 39 nM
36 | Cc1cc2c(cnn2-c2ccc(F)cc2)cc1[C@]12CN(S(=O)(=O)c3cncc(F)c3)C[C@H]1[C@@H]2c1ccccc1 [Example 78] | 25 nM
37 | COCCn1cc(S(=O)(=O)N2C[C@H]3[C@H](c4ccccc4)[C@@]3(c3cc4cnn(-c5ccc(F)cc5)c4cc3C)C2)cn1 [Example 79] | 33 nM
38 | Cc1cc2c(cnn2-c2ccc(F)cc2)cc1[C@]12CN(S(=O)(=O)c3cnn(C(C)C)n3)C[C@H]1[C@@H]2c1ccccc1 [Example 80] | 23 nM

Row | Compound | Ki
39 | Cc1cc2c(cnn2-c2ccc(F)cc2)cc1[C@@]12CN(S(=O)(=O)C3CC3)C[C@@H]1[C@H]2c1ccccc1 [Example 85] | 21 nM
40 | COCCS(=O)(=O)N1C[C@@H]2[C@@H](c3ccccc3)[C@]2(c2cc3cnn(-c4ccc(F)cc4)c3cc2C)C1 [Example 86] | 32 nM
41 | Cc1cc2c(cnn2-c2ccc(F)cc2)cc1[C@]12CN(S(=O)(=O)N3CCOCC3)C[C@H]1[C@@H]2c1ccccc1 [Example 87] | 20 nM
42 | Cc1cc2c(cnn2-c2ccc(F)cc2)cc1[C@]12CN(S(=O)(=O)C3CCOCC3)C[C@H]1[C@@H]2c1ccccc1 [Example 88] | 47 nM
43 | Cc1cc2c(cnn2-c2ccc(F)cc2)cc1[C@@]12CN(S(=O)(=O)c3ccccc3)C[C@@H]1[C@H]2c1ccccc1 [Example 89] | 17 nM
44 | Cc1cc2c(cnn2-c2ccc(F)cc2)cc1[C@@]12CN(S(=O)(=O)c3cccnc3)C[C@@H]1[C@H]2c1ccccc1 [Example 90] | 14 nM
45 | Cc1cc2c(cnn2-c2ccc(F)cc2)cc1[C@@]12CN(S(=O)(=O)c3cncs3)C[C@@H]1[C@H]2c1ccccc1 [Example 91] | 22 nM
46 | CCn1ccc(S(=O)(=O)N2C[C@@H]3[C@@H](c4ccccc4)[C@]3(c3cc4cnn(-c5ccc(F)cc5)c4cc3C)C2)n1 [Example 92] | 9.5 nM
47 | Cc1cc2c(cnn2-c2ccc(F)cc2)cc1[C@]12CN(S(=O)(=O)CC3CC3)C[C@H]1[C@@H]2c1ccccc1 [Example 93] | 29 nM
48 | CCS(=O)(=O)N1C[C@@H]2[C@@H](c3ccccc3)[C@]2(c2cc3cnn(-c4ccc(F)cc4)c3cc2C)C1 [Example 94] | 31 nM
49 | Cc1cc2c(cnn2-c2ccc(F)cc2)cc1[C@]12CN(S(=O)(=O)c3cnn(C)c3)C[C@H]1[C@@H]2c1cccc(Cl)c1 [Example 96] | 110 nM
50 | Cc1cc2c(cnn2-c2ccc(F)cc2)cc1[C@]12CN(S(=O)(=O)c3cn(C)nn3)C[C@H]1[C@@H]2c1ccccc1 [Example 97] | 32 nM
51 | Cc1cc2c(cnn2-c2ccc(F)cc2)cc1[C@@]12CN(S(=O)(=O)NCC(C)C)C[C@@H]1[C@H]2c1ccccc1 [Example 100] | 82 nM
52 | Cc1cc2c(cnn2-c2ccc(F)cc2)cc1[C@@]12CN(S(=O)(=O)C(C)C)C[C@@H]1[C@H]2c1ccccc1 [Example 101] | 41 nM
53 | Cc1cc2c(cnn2-c2ccc(F)cc2)cc1[C@@]12CN(S(=O)(=O)N3CCCCC3)C[C@@H]1[C@H]2c1ccccc1 [Example 102] | 26 nM
54 | Cc1cc2c(cnn2-c2ccc(F)cc2)cc1[C@@]12CN(S(=O)(=O)N3CC(C#N)C3)C[C@@H]1[C@H]2c1ccccc1 [Example 103] | 27 nM
55 | Cc1cc2c(cnn2-c2ccc(F)cc2)cc1[C@@]12CN(S(=O)(=O)CC(C)C)C[C@@H]1[C@H]2c1ccccc1 [Example 104] | 30 nM
56 | Cc1cc2c(cnn2-c2ccc(F)cc2)cc1[C@@]12CN(S(=O)(=O)N3CCC3)C[C@@H]1[C@H]2c1ccccc1 [Example 105] | 14 nM

Source: patent US20250115583A1, “BICYCLIC INDAZOLE GLUCOCORTICOID RECEPTOR ANTAGONISTS” (Corcept Therapeutics Incorporated, priority 2021, published 2025)
